biological target: T1, IC-GPCR2 (Homo sapiens, UniProt Q8TDV5); assay: Stimulation of cAMP in CHO cell line stably expressing IC-GPCR2 (HTRF cAMP dynamic kit); format: cell-based; conditions: 3 μM compound; relative to maximal activity of 5-Ethyl-2-{4-[4-(4-tetrazol-1-yl-phenoxymethyl)-thiazol-2-yl]-piperidin-1-yl}-pyrimidine (=100%); IC-GPCR2 stably expressing CHO cells, 30 minutes
T1 construct: expressed in transfected cells
T1 sequence (Q8TDV5 1-335 S309L): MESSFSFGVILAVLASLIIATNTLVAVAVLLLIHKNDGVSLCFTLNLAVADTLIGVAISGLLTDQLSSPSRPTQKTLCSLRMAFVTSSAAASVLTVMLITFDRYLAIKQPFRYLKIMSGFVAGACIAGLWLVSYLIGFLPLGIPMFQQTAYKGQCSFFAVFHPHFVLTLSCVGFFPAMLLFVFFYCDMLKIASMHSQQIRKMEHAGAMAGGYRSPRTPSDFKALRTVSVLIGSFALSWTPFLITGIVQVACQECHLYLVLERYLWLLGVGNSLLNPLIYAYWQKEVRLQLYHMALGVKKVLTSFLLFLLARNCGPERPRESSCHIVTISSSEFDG
Method: This assay was developed using a stable cell line expressing IC-GPCR-2, generated as follows. IC-GPCR2 (Seq. ID No. 1) was cloned into Gateway pDEST 40vector (Invitrogen), using the Gateway cloning system (invitrogen) according to the manufacturers instructions. A stable cell line was generated by transfecting a 10 cm plate of CHO cells (source) with 8 ug of this construct using Transit-CHO transfection kit (Mirus). CHO cells were plated the day prior to transfection at a density of 3,000,000 cells/plate. Clones were selected using the antibiotic G418 at 500 ug/ml. 23 clones were picked and assayed for the expression of the receptor by measuring changes in intracellular cAMP levels in response to an IC-GPCR2 agonist (Arena 51).
To measure cAMP activity in response to IC-GPCR2 agonist, the clones were plated in 96 well plates at 17500 cells per well. On the day after plating, cells were incubated with the IC-CPCR2 agonist at […] for 30 minutes in Ham's F12 Media (Gibco) with 0.04% DMSO. cAMP was measured using the cAMP dynamic kit from C is Bio (Bedford, Mass.) according to the manufacturers instructions. Briefly, cells were lysed, and cAMP levels determined by competitive immunoassay using D2 labeled cAMP, and europium cryptate tagged anti cAMP antibody. When in close proximity, the D2 and europium cryptate undergo fluorescence resonance energy transfer (FRET), which is measured as a fluorescence ratio (665 nm/620 nm). Unlabelled cAMP in the cell lysatc competed with the D2 labeled cAMP for the europium crypate labeled antibody. The resulting decrease in FRET signal corresponded to intracellular cAMP levels. Fluorescence was read on a BMG Labtech PHERAstar, software version 1.50.
The clone with the greatest response to IC-GPCR2 agonist was selected for the screening assay.
Compounds were dissolved in 100% DMSO to a concentration of […] to provide stock solutions. To determine activity against IC-GPCR2, compounds were incubated with IC-GPCR2 stably expressing cells (described above), at 6-8 concentrations ranging from 0.00003 to 10 micromolar, in 96 well plates, in 50 ul of Hams F12 media for 30 minutes. Cells were plated at 17500 cells per well 1 day before running the assay. All compounds were also screened against the parental CHO cells. cAMP was measured using the cAMP dynamic kit from Cis Bio (Bedford, Mass.), according to the manufacturer's instructions. Briefly, cells were lysed and cAMP levels determined by competitive immunoassay using D2 labeled cAMP, and europium cryptate tagged anti cAMP antibody. When in close proximity, the D2 and europium cryptate undergo fluorescence resonance energy transfer (FRET), which is measured as a fluorescence ratio (665 nm/620 nm). Unlabelled cAMP in the cell lysate competed with the D2 labeled cAMP for the europium crypate labeled antibody. The resulting decrease in FRET signal corresponded to intracellular cAMP levels
To determine percent activity for a tested compound, the FRET signal value obtained at a particular concentration are compared to the Maximal FRET signal value obtained for 5-Ethyl-2-{4-[4-(4-tetrazol-1-yl-phenoxymethyl)-thiazol-2-yl]-piperidin-1-yl}-pyrimidine. The maximal activity of 5-Ethyl-2-{4-[4-(4-tetrazol-1-yl-phenoxymethyl)-thiazol-2-yl]-piperidin-1-yl}-pyrimidine is designated as 100% activity. Typically, the concentration of 5-Ethyl-2-{4-[4-(4-tetrazol-1-yl-phenoxymethyl)-thiazol-2-yl]-piperidin-1-yl}-pyrimidine in the assay was approximately 0.1 μM. The synthesis of 5-Ethyl-2-{4-[4-(4-tetrazol-1-yl-phenoxymethyl)-thiazol-2-yl]-piperidin-1-yl}-pyrimidine is disclosed in co-owned pending U.S. patent application Ser. No. 11/964,461, herein incorporated by reference. Activities of compounds that were tested are shown in Table 1 below and are expressed as % activity at 3 μM compound compared to the maximal activity of 5-Ethyl-2-{4-[4-(4-tetrazol-1-yl-phenoxymethyl)-thiazol-2-yl]-piperidin-1-yl}-pyrimidine at 3 μM.

| SMILES | % activity at 3 μM [%] |
| --- | --- |
| CCOC(=O)CCCc1cnc(N2CCC(n3ncc(COc4ccc(-n5cnnn5)nc4)n3)CC2)nc1 [Example 58, Ethyl 4-(2-(4-(4-((6-(1H-tetrazol-1-yl)pyridin-3-yloxy)methyl)-2H-1,2,3-triazol-2-yl)piperidin-1-yl)pyrimidin-5-yl)butanoate] | 79.55 |
| CCOC(=O)c1cnc(N2CCC(n3ncc(COc4ccc(-n5cnnn5)nc4)n3)CC2)nc1 [Example 60] | 27.86 |
| O=C(c1cnc(N2CCC(n3ncc(COc4ccc(-n5cnnn5)nc4)n3)CC2)nc1)N1CCOCC1 [Example 61] | 43.59 |
| O=C(c1ncc(Br)cn1)N1CCC(n2ncc(COc3ccc(-n4cnnn4)nc3)n2)CC1 [Example 62, (4-(4-((6-(1H-tetrazol-1-yl)pyridin-3-yloxy)methyl)-2H-1,2,3-triazol-2-yl)piperidin-1-yl)(5-bromopyrimidin-2-yl)methanone] | 32.06 |
| Cc1nc(-n2cncn2)ccc1OCc1cnn(C2CCN(c3ncc(C(F)(F)F)cn3)CC2)n1 [Example 64, 2-(4-(4-((2-Methyl-6-(1H-1,2,4-triazol-1-yl)pyridin-3-yloxy)methyl)-2H-1,2,3-triazol-2-yl)piperidin-1-yl)-5-(trifluoromethyl)pyrimidine] | 66.18 |
| CCc1cnc(N2CCC(n3ncc(COc4ccc(-n5cncn5)nc4C)n3)CC2)nc1 [Example 65, 5-Ethyl-2-(4-(4-((2-methyl-6-(1H-1,2,4-triazol-1-yl)pyridin-3-yloxy)methyl)-2H-1,2,3-triazol-2-yl)piperidin-1-yl)pyrimidine] | 70.03 |
| CCc1cnc(N2CCC(n3cc(COc4ccc(-n5cnnn5)cc4F)c(C(F)(F)F)n3)CC2)nc1 [Example 66, 5-Ethyl-2-(4-(4-((2-fluoro-4-(1H-tetrazol-1-yl)phenoxy)methyl)-3-(trifluoromethyl)-1H-pyrazol-1-yl)piperidin-1-yl)pyrimidine] | 80.00 |
| CCc1cnc(N2CCC(n3cc(COc4ccc(S(C)(=O)=O)cc4F)c(C(F)(F)F)n3)CC2)nc1 [Example 67, 5-Ethyl-2-(4-(4-((2-fluoro-4-(methylsulfonyl)phenoxy)methyl)-3-(trifluoromethyl)-1H-pyrazol-1-yl)piperidin-1-yl)pyrimidine] | 57.87 |
| CCc1cnc(N2CCC(n3ncc(COc4ccc(-n5cnnn5)cc4F)c3C(F)(F)F)CC2)nc1 [Example 68, 5-Ethyl-2-(4-(4-((2-fluoro-4-(1H-tetrazol-1-yl)phenoxy)methyl)-5-(trifluoromethyl)-1H-pyrazol-1-yl)piperidin-1-yl)pyrimidine] | 74.11 |
| CC1CC(n2ncc(COc3ccc(-n4cnnn4)cc3F)n2)CCN1c1ncc(Cl)cn1 (stereo not drawn) [Example 69, 5-Chloro-2-(4-(4-((2-fluoro-4-(1H-tetrazol-1-yl)phenoxy)methyl)-2H-1,2,3-triazol-2-yl)-2-methylpiperidin-1-yl)pyrimidine] | 55.22 |
| CC1CC(n2ncc(COc3ccc(-n4cnnn4)cc3F)n2)CCN1c1ncc(C(F)(F)F)cn1 (stereo not drawn) [Example 70, 2-(4-(4-((2-Fluoro-4-(1H-tetrazol-1-yl)phenoxy)methyl)-2H-1,2,3-triazol-2-yl)-2-methylpiperidin-1-yl)-5-(trifluoromethyl)pyrimidine] | 66.77 |
| FC(F)(F)c1cnc(N2C3CCC2CC(n2ncc(COc4ccc(-n5cnnn5)nc4)n2)C3)nc1 (stereo not drawn) [Example 71, exo-3-(4-((6-(1H-Tetrazol-1-yl)pyridin-3-yloxy)methyl)-2H-1,2,3-triazol-2-yl)-8-(5-(trifluoromethyl)pyrimidin-2-yl)-8-azabicyclo[3.2.1]octane] | 70.78 |
| C=CCOC(=O)N1CCC(n2ncc(COc3ccc(-n4cnnn4)cc3F)n2)CC1 [Example 76, Allyl 4-(4-((2-fluoro-4-(1H-tetrazol-1-yl)phenoxy)methyl)-2H-1,2,3-triazol-2-yl)piperidine-1-carboxylate] | 56.39 |
| C=CCOC(=O)N1CCC(n2ncc(COc3ccc(-n4cnnn4)nc3)n2)CC1 [Example 77, Allyl 4-(4-((6-(1H-tetrazol-1-yl)pyridin-3-yloxy)methyl)-2H-1,2,3-triazol-2-yl)piperidine-1-carboxylate] | 69.86 |
| CCCCCc1cnc(N2CCC(n3ncc(COc4ccc(-n5cnnn5)nc4)n3)CC2)nc1 [Example 78, 2-(4-(4-((6-(1H-tetrazol-1-yl)pyridin-3-yloxy)methyl)-2H-1,2,3-triazol-2-yl)piperidin-1-yl)-5-pentylpyrimidine] | 57.13 |
| COc1ccc(-c2cnc(N3CCC(n4ncc(COc5ccc(-n6cnnn6)nc5)n4)CC3)nc2)cc1 [Example 80, 2-(4-(4-((6-(1H-tetrazol-1-yl)pyridin-3-yloxy)methyl)-2H-1,2,3-triazol-2-yl)piperidin-1-yl)-5-(4-methoxyphenyl)pyrimidine] | 77.53 |
| CCOC(=O)c1cnc(N2CCC(n3ncc(COc4ccc(-n5cnnn5)nc4)n3)CC2)s1 [Example 81, Ethyl 2-(4-(4-((6-(1H-tetrazol-1-yl)pyridin-3-yloxy)methyl)-2H-1,2,3-triazol-2-yl)piperidin-1-yl)thiazole-5-carboxylate] | 32.98 |

same assay, conditions: 3 μM compound; relative to maximal activity of 5-Ethyl-2-{4-[4-(4-tetrazol-1-yl-phenoxymethyl)-thiazol-2-yl]-piperidin-1-yl}-pyrimidine (=100%); IC-GPCR2 stably expressing CHO cells, 30 minutes; 3 µM

| SMILES | % activity at 3 μM [%] |
| --- | --- |
| CC(C)(C)OC(=O)N1C2CCC1CC(n1ncc(COc3ccc(-n4cnnn4)nc3)n1)C2 (stereo not drawn) [Example 72, endo-tert-Butyl 3-(4-((6-(1H-tetrazol-1-yl)pyridin-3-yloxy)methyl)-2H-1,2,3-triazol-2-yl)-8-azabicyclo[3.2.1]octane-8-carboxylate] | 60.55 |
| CC(C)(C)OC(=O)N1C2CCC1CC(n1ncc(COc3ccc(-n4cnnn4)nc3)n1)C2 (stereo not drawn) [Example 73, exo-tert-Butyl 3-(4-((6-(1H-tetrazol-1-yl)pyridin-3-yloxy)methyl)-2H-1,2,3-triazol-2-yl)-8-azabicyclo[3.2.1]octane-8-carboxylate] | 84.07 |
| Fc1cnc(N2C3CCC2CC(n2ncc(COc4ccc(-n5cnnn5)nc4)n2)C3)nc1 (stereo not drawn) [Example 74, endo-3-(4-((6-(1H-tetrazol-1-yl)pyridin-3-yloxy)methyl)-2H-1,2,3-triazol-2-yl)-8-(5-fluoropyrimidin-2-yl)-8-azabicyclo[3.2.1]octane] | 61.88 |
| Fc1cnc(N2C3CCC2CC(n2ncc(COc4ccc(-n5cnnn5)nc4)n2)C3)nc1 (stereo not drawn) [Example 75, exo-3-(4-((6-(1H-Tetrazol-1-yl)pyridin-3-yloxy)methyl)-2H-1,2,3-triazol-2-yl)-8-(5-fluoropyrimidin-2-yl)-8-azabicyclo[3.2.1]octane] | 47.94 |
